How the values were obtained:
[1] = octanol-water partition coefficient (Log P) at 25° C., shake flask method; details: for logP: octanol/water; for Log P: octanol-water partition coefficient at 25° C.
[2] = conjugate acid in water at 25° C.; cited from earlier work

logP [1]	Log P [1]	SMILES	also measured
-0.19	–	Cn1ccnc1 [1-methyl-1,3-diazole]	pKa [2]: 6.95
–	2.79	CCCN(CCC)CCC [Tripropylamine, tripropylamine]	–
–	−1.5	C1CNCCN1 [Piperazine, piperazine]	–
–	–	CC(O)CN(CC(C)O)CC(C)O (centres unmarked) [triisopropanolamine]	logP (physchem): -0.015
–	0.24	Cc1ncc[nH]1 [2-methyl-1,3-diazole]	–
> 2.79	>2.79	CCCCN(CCCC)CCCC [Tributylamine, tributylamine]	–
1.45	–	CCN(CC)CC [Triethylamine, triethylamine]	–
0.11	–	Cc1nccn1C [1,2-dimethyl-1,3-diazole]	–

SMILES	logP [1]	Log P [1]	also measured
Cc1cccnc1 [β-picoline]	–	1.2	–
